Laboratory results: paper PMC8228600, “Design, Synthesis, In Vitro and In Vivo Evaluation of Heterobivalent SiFAlin-Modified Peptidic Radioligands Targeting Both Integrin αvβ3 and the MC1 Receptor—Suitable for the Specific Visualization of Melanomas?” (Pharmaceuticals, 2021)

Key:
[1] = logD(7.4) determination (n-octanol / phosphate buffer distribution); type: physicochemical; conditions: n-octanol / 0.05 M phosphate buffer pH 7.4; mean ± SD
Description: Since high lipophilicity of peptidic radiotracers can lead to a high plasma protein binding, resulting in unspecific organ and high liver uptakes, thus negatively impact tumor visualization, the lipophilicity of the HBPLs was determined to get an approximate estimation of the in vivo biodistribution behavior of the radioligands. Therefore, the logD(7.4) values of the SiFAlin-modified HBPLs [^18F]1–[^18F]6 were determined via their distribution coefficient between n-octanol and phosphate buffer at pH 7.4.
The radiotracer solutions were first diluted with 0.9% NaCl solution to give a final EtOH concentration of <10%. A total of 5 MBq of the respective radiotracer in solution was added to 1.6 mL of a mixture of n-octanol and 0.05 M phosphate buffer (pH = 7.4) (v/v, 1/1), and the solution was vigorously shaken for 5 min. Subsequently, the phases were separated by centrifugation at 13.4 rpm for 2 min, and 100 μL of organic and aqueous phases were collected. The activity of each sample was measured using a gamma counter. The lipophilicity of each compound was determined in triplicate in three independent experiments.

[2] = Stability of radiotracers in human serum (radio-HPLC); type: in vitro ADME; conditions: 37 °C, 120 min, mean ± SD, read-out: Stability: intact radiotracer after 120 min of incubation in human serum
Description: In addition to the investigation of the radiotracers’ lipophilicity, their stability in human serum was evaluated in order to determine possible stability issues of the newly developed agents. For this purpose, the respective ^18F-labeled HBPLs were incubated in human serum at 37 °C for 120 min. The results of these experiments are summarized in Table 1, and the corresponding radio-HPLC chromatograms for [^18F]2 as representative examples for all compounds studied are depicted in Figure 3A (see Supplementary Materials, Figure S91 for the results obtained for the other radioligands). In Figure 3B, the portions of intact radiotracer over the course of the stability experiments are depicted.
The radiotracer solutions were first diluted with 0.9% NaCl solution to give a final EtOH concentration of <10%. Then, 6 × 25 μL radiotracer solution was added to 6 × 100 μL human serum and incubated at 37°C for 120 min. At defined time points (5, 15, 30, 60, 90 and 120 min), 125 μL EtOH was added to one of the mixtures and the precipitation of serum proteins was supported by ice-cooling for 2 min. After centrifugation at 13.4 rpm for 2 min, the supernatant was analyzed by analytical radio-HPLC (0–100% MeCN + 0.1% TFA in 5 min). The experiment was performed for each compound trice by three independent experiments.

Structure (SMILES)	logD [1]	remaining at 2 h [2] [%]
CCCC[C@H](NC(=O)CNC(=O)CNC(=O)CCOCCOCCC(=O)NCCCN(CCCNC(=O)CCOCCOCCC(=O)NCCCC[C@@H]1NC(=O)[C@@H](Cc2ccccc2)NC(=O)[C@H](CC(=O)O)NC(=O)CNC(=O)[C@H](CCCNC(=N)N)NC1=O)CC(=O)N[C@@H](CCCCNC(=O)CCC[N+](C)(C)Cc1ccc([Si](F)(C(C)(C)C)C(C)(C)C)cc1)C(N)=O)C(=O)N[C@H]1CC(=O)NCCCC[C@@H](C(N)=O)NC(=O)[C@H](Cc2c[nH]c3ccccc23)NC(=O)[C@H](CCCNC(=N)N)NC(=O)[C@@H](Cc2ccccc2)NC(=O)[C@H](Cc2c[nH]cn2)NC1=O [[^18F]1]	-1.08 ± 0.07	87 ± 2.3
CCCC[C@H](NC(=O)CNC(=O)CNC(=O)CCOCCOCCOCCOCCOCCOCCC(=O)NCCCN(CCCNC(=O)CCOCCOCCOCCOCCOCCOCCC(=O)NCCCC[C@@H]1NC(=O)[C@@H](Cc2ccccc2)NC(=O)[C@H](CC(=O)O)NC(=O)CNC(=O)[C@H](CCCNC(=N)N)NC1=O)CC(=O)N[C@@H](CCCCNC(=O)CCC[N+](C)(C)Cc1ccc([Si](F)(C(C)(C)C)C(C)(C)C)cc1)C(N)=O)C(=O)N[C@H]1CC(=O)NCCCC[C@@H](C(N)=O)NC(=O)[C@H](Cc2c[nH]c3ccccc23)NC(=O)[C@H](CCCNC(=N)N)NC(=O)[C@@H](Cc2ccccc2)NC(=O)[C@H](Cc2c[nH]cn2)NC1=O [[^18F]3]	-1.15 ± 0.01	81.4 ± 2.9
CCCC[C@H](NC(=O)CNC(=O)CNC(=O)COCC(=O)NCCCN(CCCNC(=O)COCC(=O)NCCCC[C@@H]1NC(=O)[C@@H](Cc2ccccc2)NC(=O)[C@H](CC(=O)O)NC(=O)CNC(=O)[C@H](CCCNC(=N)N)NC1=O)CC(=O)N[C@@H](CCCCNC(=O)CCC[N+](C)(C)Cc1ccc([Si](F)(C(C)(C)C)C(C)(C)C)cc1)C(N)=O)C(=O)N[C@H]1CC(=O)NCCCC[C@@H](C(N)=O)NC(=O)[C@H](Cc2c[nH]c3ccccc23)NC(=O)[C@H](CCCNC(=N)N)NC(=O)[C@@H](Cc2ccccc2)NC(=O)[C@H](Cc2c[nH]cn2)NC1=O [[^18F]5]	-1.21 ± 0.01	83.2 ± 2.4
CCCC[C@H](NC(=O)CNC(=O)CNC(=O)[C@H](CCC(=O)O)NC(=O)CNC(=O)[C@H](CCC(=O)O)NC(=O)CNC(=O)[C@H](CCC(=O)O)NC(=O)C(=O)NCCCN(CCCNC(=O)C(=O)N[C@@H](CCC(=O)O)C(=O)NCC(=O)N[C@@H](CCC(=O)O)C(=O)NCC(=O)N[C@@H](CCC(=O)O)C(=O)NCCCC[C@@H]1NC(=O)[C@@H](Cc2ccccc2)NC(=O)[C@H](CC(=O)O)NC(=O)CNC(=O)[C@H](CCCNC(=N)N)NC1=O)CC(=O)N[C@@H](CCCCNC(=O)CCC[N+](C)(C)Cc1ccc([Si](F)(C(C)(C)C)C(C)(C)C)cc1)C(N)=O)C(=O)N[C@H]1CC(=O)NCCCC[C@@H](C(N)=O)NC(=O)[C@H](Cc2c[nH]c3ccccc23)NC(=O)[C@H](CCCNC(=N)N)NC(=O)[C@@H](Cc2ccccc2)NC(=O)[C@H](Cc2c[nH]cn2)NC1=O [[^18F]6]	-1.52 ± 0.01	82.7 ± 1.8
